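Five concentrations, 48 hours, 96-well plates. GI50 = concentration required for 50% inhibition of growth. TGI: concentration producing complete growth inhibition.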
What was measured:
Experiment in all cases: inhibition of tumour cell growth, NCI panel, 48 h
MDA-MB-231 breast = test system: MDA-MB-231 breast
SK-MEL-5 melanoma = test system: SK-MEL-5 melanoma
HL-60(TB) leukemia = test system: HL-60(TB) leukemia
SN12C renal = test system: SN12C renal
HT29 colon = test system: HT29 colon
HCT-15 colon = test system: HCT-15 colon
OVCAR-4 ovarian = test system: OVCAR-4 ovarian
UACC-257 melanoma = test system: UACC-257 melanoma
OVCAR-5 ovarian = test system: OVCAR-5 ovarian
NCI-H522 lung = test system: NCI-H522 lung
HS 578T breast = test system: HS 578T breast
M14 melanoma = test system: M14 melanoma
UO-31 renal = test system: UO-31 renal
K-562 leukemia = test system: K-562 leukemia
UACC-62 melanoma = test system: UACC-62 melanoma
MALME-3M melanoma = test system: MALME-3M melanoma
NCI-H226 lung = test system: NCI-H226 lung
NCI-H460 lung = test system: NCI-H460 lung
LOX IMVI melanoma = test system: LOX IMVI melanoma
HCT-116 colon = test system: HCT-116 colon
RXF 393 renal = test system: RXF 393 renal
OVCAR-3 ovarian = test system: OVCAR-3 ovarian
SW-620 colon = test system: SW-620 colon
NCI-H23 lung = test system: NCI-H23 lung
DU-145 prostate = test system: DU-145 prostate
PC-3 prostate = test system: PC-3 prostate
SF-268 CNS = test system: SF-268 CNS
SF-539 CNS = test system: SF-539 CNS

NCCNC1=CC(=O)c2nc3ccccc3c3ccnc1c23
GI50 (MDA-MB-231 breast): 9.02 µM | TGI (MDA-MB-231 breast): 41.9 µM | GI50 (SK-MEL-5 melanoma): 1.59 µM | TGI (SK-MEL-5 melanoma): 4.19 µM | GI50 (HL-60(TB) leukemia): 3.78 µM | TGI (HL-60(TB) leukemia): > 35.4 µM | GI50 (SN12C renal): 1.97 µM | TGI (SN12C renal): 14.4 µM | GI50 (HT29 colon): 22.6 µM | TGI (HT29 colon): > 73.6 µM | GI50 (HCT-15 colon): 1.4 µM | TGI (HCT-15 colon): > 49.2 µM | GI50 (OVCAR-4 ovarian): 6.47 µM | TGI (OVCAR-4 ovarian): > 47.8 µM | GI50 (UACC-257 melanoma): 3.34 µM | TGI (UACC-257 melanoma): > 36.7 µM | GI50 (OVCAR-5 ovarian): 7.23 µM | TGI (OVCAR-5 ovarian): 40.3 µM | GI50 (NCI-H522 lung): 1.53 µM | TGI (NCI-H522 lung): 4.4 µM | GI50 (HS 578T breast): 2.12 µM | TGI (HS 578T breast): > 23.5 µM | GI50 (M14 melanoma): 1.48 µM | TGI (M14 melanoma): 4.75 µM | GI50 (UO-31 renal): 1.51 µM | TGI (UO-31 renal): > 20.5 µM | GI50 (K-562 leukemia): 1.4 µM | TGI (K-562 leukemia): > 24.3 µM | GI50 (UACC-62 melanoma): 1.06 µM | TGI (UACC-62 melanoma): 3.3 µM | GI50 (MALME-3M melanoma): 2.89 µM | TGI (MALME-3M melanoma): 13.4 µM | GI50 (NCI-H226 lung): 2.08 µM | TGI (NCI-H226 lung): 20.1 µM | GI50 (NCI-H460 lung): 0.732 µM | TGI (NCI-H460 lung): 5.56 µM | GI50 (LOX IMVI melanoma): 3.46 µM | TGI (LOX IMVI melanoma): 37.9 µM | GI50 (HCT-116 colon): 2.3 µM | TGI (HCT-116 colon): 14.8 µM | GI50 (RXF 393 renal): 3.97 µM | TGI (RXF 393 renal): 55.7 µM | GI50 (OVCAR-3 ovarian): 2.63 µM | TGI (OVCAR-3 ovarian): 11.8 µM | GI50 (SW-620 colon): 1.75 µM | TGI (SW-620 colon): 15.8 µM | GI50 (NCI-H23 lung): 1.24 µM | TGI (NCI-H23 lung): 3.9 µM | GI50 (DU-145 prostate): 2.11 µM | TGI (DU-145 prostate): 29.5 µM | GI50 (PC-3 prostate): 4.09 µM | TGI (PC-3 prostate): 53.4 µM | GI50 (SF-268 CNS): 3.63 µM | TGI (SF-268 CNS): 42.8 µM | GI50 (SF-539 CNS): 1.53 µM | TGI (SF-539 CNS): 4.27 µM

— PubChem BioAssay (NCI)
